{"source": "patent US7205335B2", "about": "“Preparation of cis-fused 3,3a,8,12b-tetrahydro-2H-dibenzo[3,4:6,7]cyclohepta[1,2-b]furan derivatives” (priority 2001, dated 2007)", "origin": "cited, not measured here", "details": "dose of 300 mg/kg"}
{"smiles": "CNCC1CC2c3ccccc3Cc3ccccc3C2O1.O=C(O)C(=O)O", "note": "(racemic) [(±)-3,3a,8,12b-tetrahydro-N-methyl-2H-dibenzo[3,4:6,7]-cyclohepta-[1,2-b]furan-2-methanamine oxalic acid]", "values": [{"measurement": "activity as an antidepressant", "value": "inactive"}]}
